The source made the active and inactive calls. The rule behind the calls is not given here.
Legend:
[1] = Metabolic stability in human hepatocytes assessed as intrinsic clearance measured per 10^6 viable cells/ml at 1 uM measured upto 120 mins by LC-MS/MS analysis; assay type: ADME, cell-based, Hepatocyte; conditions: read-out: CLH
[2] = Half life in Han Wistar rat at 0.90 micromol/kg, iv by LC-MS/MS analysis; assay type: ADME, organism-based; conditions: in vivo, dose 0.9 µmol/kg
[3] = Volume of distribution at steady state in Han Wistar rat at 0.90 micromol/kg, iv by LC-MS/MS analysis; assay type: ADME, organism-based; conditions: in vivo, dose 0.9 µmol/kg, read-out: Vdss
[4] = Oral bioavailability in Han Wistar rat at 1.8 micromol/kg by LC-MS/MS analysis; assay type: ADME, organism-based; conditions: in vivo, 1.8 µmol/kg
[5] = Protein binding in rat plasma assessed as fraction unbound at 5 uM measured after 18 hrs by LC-MS/MS analysis; assay type: ADME, cell-free; conditions: read-out: PPB
Relaxin receptor 1 [6] = molecular target: T1, Relaxin receptor 1 (Rattus norvegicus, UniProt Q6R6I6); assay: Agonist activity at rat RXFP1 expressed in CHO-K1 cells assessed as increase in cAMP level measured after 2 hrs by HTRF cAMP assay; assay type: functional, cell-based
T1 sequence (Q6R6I6 whole entry): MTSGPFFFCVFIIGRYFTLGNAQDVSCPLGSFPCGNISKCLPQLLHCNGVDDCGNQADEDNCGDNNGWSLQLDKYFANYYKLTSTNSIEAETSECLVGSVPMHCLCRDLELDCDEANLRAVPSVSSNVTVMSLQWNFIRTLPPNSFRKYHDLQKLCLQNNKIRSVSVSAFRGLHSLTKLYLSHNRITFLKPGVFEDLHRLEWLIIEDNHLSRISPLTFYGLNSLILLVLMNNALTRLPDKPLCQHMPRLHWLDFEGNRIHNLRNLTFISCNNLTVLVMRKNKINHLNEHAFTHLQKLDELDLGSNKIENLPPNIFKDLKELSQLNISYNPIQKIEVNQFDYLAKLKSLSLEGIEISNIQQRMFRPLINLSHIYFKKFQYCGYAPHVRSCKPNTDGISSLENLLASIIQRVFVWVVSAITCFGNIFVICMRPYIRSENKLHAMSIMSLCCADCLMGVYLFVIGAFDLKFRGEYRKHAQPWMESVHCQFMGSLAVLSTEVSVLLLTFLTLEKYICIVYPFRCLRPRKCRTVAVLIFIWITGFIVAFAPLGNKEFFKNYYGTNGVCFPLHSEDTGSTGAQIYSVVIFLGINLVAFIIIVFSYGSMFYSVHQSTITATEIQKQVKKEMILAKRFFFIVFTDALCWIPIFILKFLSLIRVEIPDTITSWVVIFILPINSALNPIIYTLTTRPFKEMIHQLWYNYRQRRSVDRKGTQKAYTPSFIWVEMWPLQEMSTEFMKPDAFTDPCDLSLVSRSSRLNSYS

[7] = Clearance in Han Wistar rat at 0.90 micromol/kg, iv by LC-MS/MS analysis; assay type: ADME, organism-based; conditions: in vivo, dose 0.9 µmol/kg
[8] = Metabolic stability in human liver microsomes assessed as intrinsic clearance at 1 uM measured upto 30 mins by LC-MS/MS analysis; assay type: ADME, Microsome; conditions: read-out: CLH
[9] = Metabolic stability in rat hepatocytes assessed as unbound intrinsic clearance measured per 10^6 viable cells/ml at 1 uM measured upto 120 mins by LC-MS/MS analysis; assay type: ADME, cell-based, Hepatocyte; conditions: 2 h
[10] = Octanol/water partition coefficient, logD of the compound at pH 7.4 by shake flask method; assay type: physicochemical
[11] = Metabolic stability in human liver microsomes assessed as unbound intrinsic clearance at 1 uM measured upto 30 mins by LC-MS/MS analysis; assay type: ADME, Microsome; conditions: 0.5 h
[12] = Metabolic stability in human hepatocytes assessed as unbound intrinsic clearance measured per 10^6 viable cells/ml at 1 uM measured upto 120 mins by LC-MS/MS analysis; assay type: ADME, cell-based, Hepatocyte; conditions: 2 h
Relaxin receptor 1 [13] = molecular target: T2, Relaxin receptor 1 (Homo sapiens, UniProt Q9HBX9)
T2 sequence (Q9HBX9 whole entry): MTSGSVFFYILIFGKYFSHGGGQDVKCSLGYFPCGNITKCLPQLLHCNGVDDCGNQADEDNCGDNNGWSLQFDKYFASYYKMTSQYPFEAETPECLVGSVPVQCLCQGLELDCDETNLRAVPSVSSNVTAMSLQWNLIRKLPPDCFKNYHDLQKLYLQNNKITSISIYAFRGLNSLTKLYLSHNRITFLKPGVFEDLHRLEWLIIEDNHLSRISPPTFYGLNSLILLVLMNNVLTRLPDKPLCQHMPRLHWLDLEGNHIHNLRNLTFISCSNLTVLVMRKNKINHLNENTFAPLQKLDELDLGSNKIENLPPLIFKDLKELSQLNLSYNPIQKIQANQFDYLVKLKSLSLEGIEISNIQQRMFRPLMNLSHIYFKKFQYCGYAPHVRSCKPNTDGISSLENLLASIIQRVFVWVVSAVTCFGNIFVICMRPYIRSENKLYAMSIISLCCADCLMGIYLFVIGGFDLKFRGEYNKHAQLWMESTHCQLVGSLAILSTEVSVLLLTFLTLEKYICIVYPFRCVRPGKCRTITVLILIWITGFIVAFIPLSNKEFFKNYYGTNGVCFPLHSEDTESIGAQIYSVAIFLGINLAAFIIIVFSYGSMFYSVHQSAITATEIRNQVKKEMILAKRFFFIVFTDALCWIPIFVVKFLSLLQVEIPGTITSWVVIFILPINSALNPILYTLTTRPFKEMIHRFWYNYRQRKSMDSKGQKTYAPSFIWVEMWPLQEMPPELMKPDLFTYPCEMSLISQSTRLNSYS
Description: Agonist activity at human RXFP1 expressed in CHO cells assessed as increase in cAMP level measured after 2 hrs by HTRF cAMP assay

[14] = Apparent permeability across apical to basolateral side in human Caco-2 cells at pH 7.4 by LC-MS/MS analysis; assay type: ADME, cell-based; conditions: Caco-2, pH 7.4
[15] = Protein binding in human plasma assessed as fraction unbound at 5 uM measured after 18 hrs by LC-MS/MS analysis; assay type: ADME, cell-free; conditions: read-out: PPB
[16] = molecular target: T3, Relaxin receptor 1 (Homo sapiens) (UniProt Q9HBX9); conditions: CHO-K1, time 15.0 min
T3 sequence (whole entry): T2 sequence (Q9HBX9 whole entry)

Relaxin receptor 1 [17] = molecular target: T4, Relaxin receptor 1 (Mus musculus, UniProt Q6R6I7)
T4 sequence (Q6R6I7 whole entry): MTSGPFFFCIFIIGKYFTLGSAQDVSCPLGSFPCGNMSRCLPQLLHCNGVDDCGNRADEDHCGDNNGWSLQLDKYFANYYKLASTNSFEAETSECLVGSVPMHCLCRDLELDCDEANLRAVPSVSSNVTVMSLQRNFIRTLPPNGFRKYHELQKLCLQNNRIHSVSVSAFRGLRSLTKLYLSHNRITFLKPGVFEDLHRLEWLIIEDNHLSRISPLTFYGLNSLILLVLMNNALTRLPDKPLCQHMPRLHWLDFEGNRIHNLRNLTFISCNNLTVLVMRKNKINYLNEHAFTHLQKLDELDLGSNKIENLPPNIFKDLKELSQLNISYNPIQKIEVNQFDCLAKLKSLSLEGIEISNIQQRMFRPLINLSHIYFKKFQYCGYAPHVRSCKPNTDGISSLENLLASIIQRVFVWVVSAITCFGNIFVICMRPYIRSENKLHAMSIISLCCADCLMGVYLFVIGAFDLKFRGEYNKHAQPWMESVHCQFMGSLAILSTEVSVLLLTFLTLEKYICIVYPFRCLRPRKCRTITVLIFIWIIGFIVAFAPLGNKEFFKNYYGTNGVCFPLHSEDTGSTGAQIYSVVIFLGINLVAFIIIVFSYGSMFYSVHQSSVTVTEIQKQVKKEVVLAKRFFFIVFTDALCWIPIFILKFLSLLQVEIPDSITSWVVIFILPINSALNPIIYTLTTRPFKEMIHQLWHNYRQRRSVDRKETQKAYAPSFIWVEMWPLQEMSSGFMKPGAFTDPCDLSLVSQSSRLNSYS
Description: Agonist activity at mouse RXFP1 expressed in CHO-K1 cells assessed as increase in cAMP level measured after 2 hrs by HTRF cAMP assay

[18] = Oral bioavailability in Han Wistar rat at 1.9 micromol/kg by LC-MS/MS analysis; assay type: ADME, organism-based; conditions: in vivo, 1.9 µmol/kg
[19] = Clearance in Han Wistar rat at 0.96 micromol/kg, iv by LC-MS/MS analysis; assay type: ADME, organism-based; conditions: in vivo, dose 0.96 µmol/kg
[20] = Volume of distribution at steady state in Han Wistar rat at 0.96 micromol/kg, iv by LC-MS/MS analysis; assay type: ADME, organism-based; conditions: in vivo, dose 0.96 µmol/kg, read-out: Vdss
[21] = Half life in Han Wistar rat at 0.96 micromol/kg, iv by LC-MS/MS analysis; assay type: ADME, organism-based; conditions: in vivo, dose 0.96 µmol/kg

| Structure (SMILES) | microsomal CLint at 1 µM [8] [µL/min/mg] | logD [10] | CL free [11] [µL/min/mg] | EC50 (Relaxin receptor 1 [13]) [nM] | hepatocyte CLint at 1 µM [1] [µL/min/1e6 cells] | CL free [12] | also measured |
| --- | --- | --- | --- | --- | --- | --- | --- |
| COc1cc(C#N)c(O[C@H]2CC[C@@](C)(C(=O)O)CC2)cc1C(=O)N[C@@H]1[C@H]2CC[C@H](C2)[C@@H]1C(=O)NC12CC(F)(C1)C2 | 4 | 2.2 | 4.7 |  | 1.5 | 2.6 µL/min | half-life [2]: 1.4 h; Vd [3]: 0.96 L/kg; bioavailability [4]: 17%; fraction unbound at 18 h, 5 µM [5]: 0.101; EC50 (Relaxin receptor 1 [6]): 10500 nM; clearance [7]: 59 mL/min/kg; CL free [9]: 11 µL/min |
| CC1(CNC(=O)[C@H]2[C@@H]3CC[C@@H](C3)[C@H]2NC(=O)c2cc(O[C@H]3CC[C@@](C)(C(=O)O)CC3)ccn2)CCC1 | 29 | 2.5 | 35 | 1580 | 2.3 | 3.3 µL/min |  |
| COc1c(C#N)cc(O[C@H]2CC[C@@](C)(C(=O)O)CC2)cc1C(=O)N[C@@H]1[C@H]2CC[C@H](C2)[C@@H]1C(=O)NCC1(C)CCC1 | 50 | 2.9 | 69 | 79.4 | 11 | 16 µL/min |  |
| CC(C)Oc1ccccc1C(=O)Nc1ccccc1C(=O)Nc1cccc(S(=O)(=O)C(F)(F)F)c1 |  | > 4 |  |  |  | 3.07 10^3uL/min | fraction unbound at 18 h, 5 µM [15]: < 0.0002; pEC50 [16]: inactive; fraction unbound at 18 h, 5 µM [5]: < 0.0002 |
| CC1(CNC(=O)[C@H]2[C@@H]3CC[C@@H](C3)[C@H]2NC(=O)c2cc(O[C@H]3CC[C@@](C)(C(=O)O)CC3)c(C#N)cn2)CCC1 | 17 | 2.4 | 20 | 100 | 3.1 | 4.2 µL/min |  |
| COc1cc(F)c(O[C@H]2CC[C@@H](C(=O)O)CC2)cc1C(=O)N[C@@H]1[C@H]2CC[C@H](C2)[C@@H]1C(=O)NCC(C)(C)C | 6.8 | 2.3 | 8.5 | 1000 | 2.2 | 3.4 µL/min | EC50 (Relaxin receptor 1 [17]): > 39800 nM; bioavailability [18]: 5.6%; clearance [19]: 64 mL/min/kg; fraction unbound at 18 h, 5 µM [5]: 0.079; CL free [9]: 133 µL/min; Vd [20]: 0.6 L/kg; half-life [21]: 1.8 h |
| COc1cc(F)c(O[C@H]2CC[C@@](C)(C(=O)O)CC2)cc1C(=O)N[C@@H]1[C@H]2CC[C@H](C2)[C@@H]1C(=O)NCC(C)(C)C(F)(F)F | 13 | 3.19 | 23 |  | 4.2 | 8.6 µL/min | Papp A→B [14]: 66 ×10⁻⁶ cm/s |

Second part, led by results:

| microsomal CLint at 1 µM [8] [µL/min/mg] | logD [10] | CL free [11] [µL/min/mg] | EC50 (Relaxin receptor 1 [13]) [nM] | Structure (SMILES) | hepatocyte CLint at 1 µM [1] [µL/min/1e6 cells] | CL free [12] | also measured |
| --- | --- | --- | --- | --- | --- | --- | --- |
| 13 | 1.4 | 18 | 79.4 | COc1cc(F)c(O[C@H]2CC[C@@](CC#N)(C(=O)O)CC2)cc1C(=O)N[C@@H]1[C@H]2CC[C@H](C2)[C@@H]1C(=O)NCC1(C)CCC1 | 10 | 15 µL/min |  |
| < 5.1 | 1.5 | < 6.2 |  | COc1cc(F)c(O[C@H]2CC[C@@](CO)(C(=O)O)CC2)cc1C(=O)N[C@@H]1[C@H]2CC[C@H](C2)[C@@H]1C(=O)NCC1(C)CCC1 | 6.2 | 11 µL/min | Papp A→B [14]: 3.1 ×10⁻⁶ cm/s |
| 14 | 3.3 | 27 | 15.8 | CC1(CNC(=O)[C@H]2C3CCC(C3)[C@H]2NC(=O)c2cc(O[C@H]3CC[C@@](C)(C(=O)O)CC3)c(C#N)cc2F)CCC1 (stereo not given in full) | 7.9 | 16 µL/min |  |
| < 3 | 2.1 | < 5.5 |  | COc1cc(F)c(O[C@H]2CC[C@](C(=O)O)(C(F)(F)F)CC2)cc1C(=O)N[C@@H]1[C@H]2CC[C@H](C2)[C@@H]1C(=O)NCC1(C)CCC1 | 3.9 | 8.8 µL/min | Papp A→B [14]: 35 ×10⁻⁶ cm/s |
| 36 | 2.9 | 46 | 100 | COc1ccc(O[C@H]2CC[C@@](C)(C(=O)O)CC2)cc1C(=O)N[C@@H]1[C@H]2CC[C@H](C2)[C@@H]1C(=O)NCC1(C)CCC1 | 6.1 | 10 µL/min |  |
| 78 | 4.3 | 269 | 158 | COc1cc(F)c(C[C@H]2CC[C@@](C)(C(=O)O)CC2)cc1C(=O)N[C@@H]1[C@H]2CC[C@H](C2)[C@@H]1C(=O)NCC1(C)CCC1 | 9.8 | 43 µL/min |  |

From ChEMBL document CHEMBL5518236, “Discovery of Clinical Candidate AZD5462, a Selective Oral Allosteric RXFP1 Agonist for Treatment of Heart Failure” (J Med Chem, 2024)
